Measurements published in PubChem BioAssay (NCI).
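48-hour exposure; five concentrations; linearly interpolated endpoints. At the GI50, growth is halved. TGI: concentration producing complete growth inhibition.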

Columns and labels:
Assay in all cases: DTP human tumour cell line panel, 48 h
TK-10 renal = tested on: TK-10 renal
KM12 colon = tested on: KM12 colon
MDA-MB-231 breast = tested on: MDA-MB-231 breast
NCI/ADR-RES ovarian = tested on: NCI/ADR-RES ovarian
IGROV1 ovarian = tested on: IGROV1 ovarian
U251 CNS = tested on: U251 CNS
LOX IMVI melanoma = tested on: LOX IMVI melanoma
UACC-257 melanoma = tested on: UACC-257 melanoma
786-0 renal = tested on: 786-0 renal
SNB-75 CNS = tested on: SNB-75 CNS

SMILES | GI50 (TK-10 renal) [µM] | TGI (TK-10 renal) [µM] | GI50 (KM12 colon) [µM] | TGI (KM12 colon) [µM] | GI50 (MDA-MB-231 breast) [µM] | TGI (MDA-MB-231 breast) [µM] | GI50 (NCI/ADR-RES ovarian) [µM] | TGI (NCI/ADR-RES ovarian) [µM] | GI50 (IGROV1 ovarian) [µM] | TGI (IGROV1 ovarian) [µM] | GI50 (U251 CNS) [µM] | TGI (U251 CNS) [µM] | GI50 (LOX IMVI melanoma) [µM] | TGI (LOX IMVI melanoma) [µM] | GI50 (UACC-257 melanoma) [µM] | TGI (UACC-257 melanoma) [µM] | GI50 (786-0 renal) [µM] | TGI (786-0 renal) [µM] | GI50 (SNB-75 CNS) [µM] | TGI (SNB-75 CNS) [µM]
CC(=O)c1cc(C(=O)c2ccc3c(c2)Sc2ccccc2N3)c2c(C)cc(C)cn12 | 1.31 | > 100 | 0.353 | > 46.7 | 0.458 | 8.95 | 0.264 | 8.16 | 0.596 | > 100 | 0.396 | > 100 | 0.73 | > 100 | 2.04 | > 100 | 0.465 | > 21.5 | 0.171 | 1.5
Clc1ccc2c(c1)N(CCCN1CCCC1)c1ccccc1S2 | 13 | 26 | 5.14 | 18.7 | 3.42 | 12.8 | 5.34 | 18.8 | 7.84 | 23.3 | 6.96 | 20.5 | 2.5 | 7.14 | 11.4 | 23.8 | 5.38 | 19.3 | 3.4 | 16.4
C[C@]12CC[C@H](O)C[C@H]1CC[C@@H]1[C@@H]2CC[C@]2(C)[C@@H](C3=CC(=O)OC3)[C@@H](O)C[C@]12O | – | 1.99 | – | 18.2 | – | 20.1 | – | 3.9 | – | 37.3 | – | 5.08 | – | 12 | – | 5.46 | – | 2.36 | – | 16.7
Cc1cc(O)ccc1C1=NN(c2ccc(S(C)(=O)=O)cc2)C(=O)CC1 | 80.5 | > 100 | 4.22 | > 100 | 17.1 | > 100 | 3.26 | > 100 | 7.13 | > 100 | 4.3 | > 100 | 7.25 | > 100 | 5.65 | > 100 | 92.5 | > 100 | 5.53 | 75.2
